Data published in patent US20220056019A1, “FARNESOID X RECEPTOR AGONISTS AND USES THEREOF” (Metacrine, Inc., priority 2018, published 2022).

target: T1, hFXR (Homo sapiens, UniProt Q96RI1); experiment: In Vitro FXR Assay (TK): TK-ECRE-luc reporter in transfected CV-1 cells; type: cell-based; conditions: 18 hrs incubation, luminescence
T1 construct: expressed in transfected cells; host or cells: CV-1 cells
T1 sequence (Q96RI1 1-486): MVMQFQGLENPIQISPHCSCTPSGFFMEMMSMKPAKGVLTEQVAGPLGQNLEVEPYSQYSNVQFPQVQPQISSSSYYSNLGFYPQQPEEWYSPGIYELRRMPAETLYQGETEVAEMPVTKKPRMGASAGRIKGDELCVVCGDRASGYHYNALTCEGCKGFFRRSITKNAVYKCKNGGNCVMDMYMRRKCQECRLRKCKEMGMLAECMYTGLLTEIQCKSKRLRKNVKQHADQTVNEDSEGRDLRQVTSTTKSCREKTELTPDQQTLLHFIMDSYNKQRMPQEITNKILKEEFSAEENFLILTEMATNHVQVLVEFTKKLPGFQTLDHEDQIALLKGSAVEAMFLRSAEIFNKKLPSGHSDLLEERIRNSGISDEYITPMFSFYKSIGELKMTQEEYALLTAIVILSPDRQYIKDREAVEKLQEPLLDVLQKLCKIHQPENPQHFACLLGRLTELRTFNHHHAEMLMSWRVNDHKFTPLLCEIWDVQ
T1 sequence (P19793 1-462 partner): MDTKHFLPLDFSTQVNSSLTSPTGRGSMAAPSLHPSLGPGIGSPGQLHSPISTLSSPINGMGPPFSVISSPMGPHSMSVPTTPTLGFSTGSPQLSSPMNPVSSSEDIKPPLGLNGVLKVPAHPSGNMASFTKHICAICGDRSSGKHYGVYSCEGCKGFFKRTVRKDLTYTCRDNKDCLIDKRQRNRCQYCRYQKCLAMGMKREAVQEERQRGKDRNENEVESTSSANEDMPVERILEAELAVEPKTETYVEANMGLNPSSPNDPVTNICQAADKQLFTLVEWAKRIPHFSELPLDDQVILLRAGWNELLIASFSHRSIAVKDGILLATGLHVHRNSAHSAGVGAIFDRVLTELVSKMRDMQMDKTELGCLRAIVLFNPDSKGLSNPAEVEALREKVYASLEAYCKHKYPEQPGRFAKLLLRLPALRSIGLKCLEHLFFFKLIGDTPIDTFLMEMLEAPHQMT
Summary of the method: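 CV-1, DMEM/10% charcoal-stripped FBS, 37 °C 5% CO2. Transfection O/N: hFXR + hRXR + TK-ECRE-luc + pCMX-YFP. Cpds (DMSO serial dil.) 18 h; lyse, read luminescence.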

| EC50 | Structure (SMILES) |
| --- | --- |
| ≤ 0.05 µM | COc1ccc([C@H]2CC[C@H](CN(c3cc(-c4cnc(C5CC5)s4)ccn3)C(=O)[C@H]3CC[C@H](OC(=O)N4CCN(C)CC4)CC3)CC2)cc1C [Compound 2.27, trans-4-((4-(2-Cyclopropylthiazol-5-yl)pyridin-2-yl)(((trans)-4-(4-methoxy-3-methylphenyl)cyclohexyl)methyl)carbamoyl)cyclohexyl 4-methylpiperazine-1-carboxylate] |
| 0.05 to 1 µM | COc1ccc([C@H]2CC[C@H](CN(c3cccc(-c4cnn(C(C)C)c4)c3)C(=O)[C@H]3CC[C@H](NC(=O)CC4CCOCC4)CC3)CC2)cc1C [Compound 10.03, trans-N-(3-(1-Isopropyl-1H-pyrazol-4-yl)phenyl)-N-((trans-4-(4-methoxy-3-methylphenyl)cyclohexyl)methyl)-4-(2-(tetrahydro-2H-pyran-4-yl)acetamido)cyclohexanecarboxa-mide] |
| ≤ 0.05 µM | COc1ccc(C23CCC(CN(c4cc(-c5cnn(C6(C)CCC6)c5)ccn4)C(=O)[C@H]4CC[C@H](OC(=O)N5CC(CS(C)(=O)=O)C5)CC4)(CC2)CC3)cc1C [Compound 25.20, 4-(((4-(4-Methoxy-3-methylphenyl)bicyclo[2.2.2]octan-1-yl)methyl)(4-(1-(1-methylcyclobutyl)-1H-pyrazol-4-yl)pyridin-2-yl)carbamoyl)(trans-cyclohexyl) 3-((methysulfonyl)methyl)azetidine-1-carboxylate] |
| ≤ 0.05 µM | COc1ccc(C23CCC(CN(c4cc(-c5cnc(C6CC6)s5)ccn4)C(=O)[C@H]4CC[C@H](NC(=O)CO)CC4)(CC2)CC3)cc1C [Compound 9.08, (trans)-N-(4-(2-Cyclopropylthiazol-5-yl)pyridin-2-yl)-4-(2-hydroxyacetamido)-N-((4-(4-methoxy-3-methylphenyl)bicyclo[2.2.]octan-1-yl)methyl)cyclohexanecarboxamide] |
| ≤ 0.05 µM | COc1ccc(C23CCC(CN(c4cc(-c5cnn(C(C)C)c5)ncn4)C(=O)[C@H]4CC[C@H](OC(=O)N5CC(CS(C)(=O)=O)C5)CC4)(CC2)CC3)cc1C [Compound 23.21, 4-((6-(1-Isopropyl-1H-pyrazol-4-yl)pyrimidin-4-yl)((4-(4-methoxy-3-methylphenyl)bicyclo[2.2.2]octan-1-yl)methyl)carbamoyl)(trans-cyclohexyl) 3-((methylsulfonyl)meth-yl)azetidine-1-carboxylate] |
| ≤ 0.05 µM | COc1ccc([C@H]2CC[C@](F)(CN(c3cccc(-c4cnn(C(C)C)c4)c3)C(=O)[C@H]3CC[C@H](OC(=O)N4CC(O)C4)CC3)CC2)cc1C [Compound 25.01, 4-((((trans)-1-Fluoro-4-(4-methoxy-3-methylphenyl)cyclohexyl)methyl)(3-(1-isopropyl-1H-pyrazol-4-yl)phenyl)carbamoyl)(trans-cyclohexyl) 3-hydroxyazetidine-1-carboxylate] |
| ≤ 0.05 µM | COc1ccc([C@H]2CC[C@H](CN(c3cc(-c4cnn(C(C)C)c4)ccn3)C(=O)[C@H]3CC[C@H](OC(=O)N4CCN(C)CC4)CC3)CC2)cc1C [Compound 2.14, trans-4-((4-(1-Isopropyl-1H-pyrazol-4-yl)pyridin-2-yl)(((trans)-4-(4-methoxy-3-methylphenyl)cyclohexyl)methyl)carbamoyl) cyclohexyl4-methylpiperazine-1-carboxylate] |
| ≤ 0.05 µM | COCC(=O)N[C@H]1CC[C@H](C(=O)N(CC23CCC(c4ccc(OC)c(C)c4)(CC2)CC3)c2cc(-c3coc(C4CC4)n3)ccn2)CC1 [Compound 9.10, (trans)-N-(4-(2-Cyclopropyloxazol-4-yl)pyridin-2-yl)-N-((4-(4-methoxy-3-methylphenyl)bicyclo[2.2.2]octan-1-yl)methyl)-4-(2-methoxyacetamido)cyclohexanecar-boxamide] |
| ≤ 0.05 µM | COc1ccc([C@H]2CC[C@H](CN(c3cc(-c4cnn(C(C)C)c4)ccn3)C(=O)[C@H]3CC[C@H](OC(=O)NCC(C)(C)O)CC3)CC2)cc1Cl [Compound 2.05, (trans)-4-((((trans)-4-(3-Chloro-4-methoxyphenyl)cyclohexyl)methyl)(4-(1-isopropyl-1H-pyrazol-4-yl)pyridin-2-yl)carbamoyl)cyclohexyl (2-hydroxy-2-methylpropyl)carbamate] |
| ≤ 0.05 µM | COc1ccc([C@H]2CC[C@H](CN(c3cc(-c4coc(C5CC5)n4)ccn3)C(=O)[C@H]3CC[C@H](OC(=O)NC4COC4)CC3)CC2)cc1C [Compound 2.53, trans-4-((4-(2-Cyclopropyloxazol-4-yl)pyridin-2-yl)(((trans)-4-(4-methoxy-3-methylphenyl)cyclohexyl)methyl)carbamoyl)cyclohexyl oxetan-3-ylcarbamate] |
| ≤ 0.05 µM | COc1ccc(C23CCC(CN(c4cc(-c5cnn(C(C)C)c5)ccn4)C(=O)[C@H]4CC[C@H](OC(=O)NCCO)CC4)(CC2)CC3)cc1C [Compound 4.05, 4-((4-(1-Isopropyl-1H-pyrazol-4-yl)pyridin-2-yl)((4-(4-methoxy-3-methylphenyl)bicyclo [2.2.2]octan-1-yl)methyl)carbamoyl)cyclohexyl (2-hydroxyethyl)trans-carbamate] |
| ≤ 0.05 µM | COc1ccc(C23CCC(CN(c4cc(-c5cnn(C(F)(F)F)c5)ccn4)C(=O)[C@H]4CC[C@H](OC(=O)N5CC(O)C5)CC4)(CC2)CC3)cc1C [Compound 4.19, 4-(((4-(4-Methoxy-3-methylphenyl)bicyclo [2.2.2]octan-1-yl)methyl) (4-(1-(trifluoromethyl)-1H-pyrazol-4-yl)pyridin-2-yl)carbamoyl) cyclohexyl 3-hydroxyazetidine-trans-1-carboxylate] |
| ≤ 0.05 µM | COc1ccc([C@H]2CC[C@H](CN(c3cc(-c4cnn(C(C)C)c4)ccn3)C(=O)[C@H]3CC[C@H](OC(=O)NC[C@H](F)CF)CC3)CC2)cc1C [Compound 2.33, trans-4-((4-(1-Isopropyl-1H-pyrazol-4-yl)pyridin-2-yl)(((trans)-4-(4-methoxy-3-methylphenyl)cyclohexyl)methyl)carbamoyl) cyclohexyl((S)-2,3-difluoropropyl) carbamate] |
| ≤ 0.05 µM | COc1ccc(C23CCC(CN(c4cc(-c5cnn(C(C)C)c5)ccn4)C(=O)[C@H]4CC[C@H](NC(=O)COCCCO)CC4)(CC2)CC3)cc1C [Compound 13.02, trans-4-(2-(3 Hydroxypropoxy)acetamido)-N-(4-(1-isopropyl-1H-pyrazol-4-yl)pyridin-2-yl)-N-((4-(4-methoxy-3-methylphenyl)bicyclo[2.2.2]octan-1-yl)methyl)cyclohexanecarboxamide] |
| ≤ 0.05 µM | COc1ccc(C23CCC(CN(c4cc(-c5cnn(C(C)C)c5)ccn4)C(=O)[C@H]4CC[C@H](OC(=O)N(C)CCO)CC4)(CC2)CC3)cc1C [Compound 4.51, 4-((4-(1-Isopropyl-1H-pyrazol-4-yl)pyridin-2-yl) ((4-(4-methoxy-3-methylphenyl)bicyclo [2.2.2]octan-1-yl)methyl)carbamoyl)cyclohexyl (2-hydroxyethyl)(methyl) trans-carbamate] |
| 0.05 to 1 µM | COc1ccc([C@H]2CC[C@H](CN(c3cccc(-c4cnn(C(C)C)c4)c3)C(=O)[C@H]3CC[C@H](CNC(=O)OC(C)C)CC3)CC2)cc1C [Compound 12.05, Isopropyl (((trans)-4-((3-(1-isopropyl-1H-pyrazol-4-yl)phenyl)(((trans)-4-(4-methoxy-3-methylphenyl)cyclohexyl)methyl)carbamoyl)cyclohexyl)methyl)car-bamate] |
| ≤ 0.05 µM | COc1ccc(C23CCC(CN(c4cc(-c5coc(C(C)C)n5)ccn4)C(=O)[C@H]4CC[C@H](OC(=O)N5CC(O)C5)CC4)(CC2)CC3)cc1C [Compound 4.23, 4-((4-(2-Isopropyloxazol-4-yl)pyridin-2-yl)((4-(4-methoxy-3-methylphenyl)bicyclo[2.2.2]octan-1-yl)methyl)carbamoyl) cyclohexyl 3-hydroxyazetidine-trans-1-carboxylate] |
| ≤ 0.05 µM | COc1ccc([C@H]2CC[C@H](CN(c3cccc(-c4cnn(C(C)C)c4)c3)C(=O)[C@H]3CC[C@H](OC(=O)NCCCF)CC3)CC2)cc1C [Compound 5.04, trans-4-((3-(1-Isopropyl-1H-pyrazol-4-yl)phenyl)(((trans)-4-(4-methoxy-3-methylphenyl)cyclohexyl)methyl)carbamoyl)cyclohexyl (3-fluoropropyl)carbamate] |
| ≤ 0.05 µM | COc1ccc(C23CCC(CN(c4cc(-c5cnn(C(C)C)c5)ccn4)C(=O)[C@H]4CC[C@H](OC(=O)N5CC(C#N)C5)CC4)(CC2)CC3)cc1C [Compound 4.45, 4-((4-(1-Isopropyl-1H-pyrazol-4-yl)pyridin-2-yl) ((4-(4-methoxy-3-methylphenyl)bicyclo [2.2.2]octan-1-yl)methyl)carbamoyl)cyclohexyl trans-3-cyanoazetidine-1-carboxylate] |
